The text below walks through data of patent US9079905B2, “Compounds for the treatment of CNS disorders” (Boehringer Ingelheim International GmbH, priority 2008, dated 2015).

The inhibition is how much of the control response was suppressed. One may read the pIC50 as the IC50 on a negative log10 scale, so that one unit is a factor of ten.

pIC50: −log10 of the molar value.

The target of one assay is T1, human PDE9A2 (Homo sapiens, UniProt O76083).
T1 construct: made in house; host or cells: Sf9 insect cells (infected; crude lysate used as enzyme source)
T1 sequence (O76083 1-533 isoform O76083-2): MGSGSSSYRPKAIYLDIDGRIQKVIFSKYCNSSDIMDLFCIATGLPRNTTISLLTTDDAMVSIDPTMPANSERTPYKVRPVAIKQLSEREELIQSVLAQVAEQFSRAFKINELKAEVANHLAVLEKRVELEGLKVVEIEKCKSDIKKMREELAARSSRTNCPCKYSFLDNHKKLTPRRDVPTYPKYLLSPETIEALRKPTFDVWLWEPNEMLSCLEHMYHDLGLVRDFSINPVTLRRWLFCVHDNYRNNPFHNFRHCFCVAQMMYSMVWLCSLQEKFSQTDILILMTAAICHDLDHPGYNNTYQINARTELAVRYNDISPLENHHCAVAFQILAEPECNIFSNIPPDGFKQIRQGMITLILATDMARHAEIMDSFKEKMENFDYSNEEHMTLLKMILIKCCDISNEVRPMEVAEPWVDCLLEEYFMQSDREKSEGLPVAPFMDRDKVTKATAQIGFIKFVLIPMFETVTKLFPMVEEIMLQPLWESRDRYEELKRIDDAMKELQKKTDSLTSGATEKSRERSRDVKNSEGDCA
In words: PDE9A2 enzymatic activity assay (scintillation proximity assay). The class given is biochemical. Particulars: for inhibition at 10 µM: read-out: % Inhibition of PDE 9A2; for pIC50: specific IC50 value is within the given range. Summed up:
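Scintillation proximity read-out of cGMP (20 nM) hydrolysis after 60 min at room temperature, using 0.1-50 ng protein from Sf9 lysate expressing human PDE9A2. Buffer was Tris 50 mM, pH 7.5, with MgCl2, EGTA, BSA and Tween 20. Values are % inhibition at 10 μM by default, relative to positive and negative controls; IC50 from titrations.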
Background: In a scintillation proximity assay essentially only radioactivity close to the scintillant gives light.

The target in the next assay is human PDE9A (Homo sapiens, UniProt O76083). The settings on record: concentrations of up to 100 micromolar (μM); cited from earlier work.
human PDE9A, sequence (O76083 whole entry): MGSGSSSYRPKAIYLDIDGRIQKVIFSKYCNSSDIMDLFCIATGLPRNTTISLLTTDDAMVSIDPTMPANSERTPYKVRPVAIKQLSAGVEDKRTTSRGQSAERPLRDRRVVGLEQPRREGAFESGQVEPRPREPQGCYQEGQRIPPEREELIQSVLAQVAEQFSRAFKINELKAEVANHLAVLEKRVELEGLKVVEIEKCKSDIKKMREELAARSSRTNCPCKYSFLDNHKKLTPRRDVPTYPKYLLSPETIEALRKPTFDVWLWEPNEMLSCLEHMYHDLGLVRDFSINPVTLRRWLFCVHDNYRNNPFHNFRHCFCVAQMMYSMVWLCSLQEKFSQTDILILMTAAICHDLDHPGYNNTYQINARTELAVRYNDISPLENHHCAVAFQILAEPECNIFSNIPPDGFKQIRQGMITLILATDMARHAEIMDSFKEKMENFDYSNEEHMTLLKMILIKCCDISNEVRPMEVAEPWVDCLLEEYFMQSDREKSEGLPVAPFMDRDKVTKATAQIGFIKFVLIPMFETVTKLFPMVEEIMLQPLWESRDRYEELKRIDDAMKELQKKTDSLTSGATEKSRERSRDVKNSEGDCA
A further assay concerns the target T2, Murine PDE9A (Mus musculus, UniProt O70628).
T2 sequence (O70628 1-534): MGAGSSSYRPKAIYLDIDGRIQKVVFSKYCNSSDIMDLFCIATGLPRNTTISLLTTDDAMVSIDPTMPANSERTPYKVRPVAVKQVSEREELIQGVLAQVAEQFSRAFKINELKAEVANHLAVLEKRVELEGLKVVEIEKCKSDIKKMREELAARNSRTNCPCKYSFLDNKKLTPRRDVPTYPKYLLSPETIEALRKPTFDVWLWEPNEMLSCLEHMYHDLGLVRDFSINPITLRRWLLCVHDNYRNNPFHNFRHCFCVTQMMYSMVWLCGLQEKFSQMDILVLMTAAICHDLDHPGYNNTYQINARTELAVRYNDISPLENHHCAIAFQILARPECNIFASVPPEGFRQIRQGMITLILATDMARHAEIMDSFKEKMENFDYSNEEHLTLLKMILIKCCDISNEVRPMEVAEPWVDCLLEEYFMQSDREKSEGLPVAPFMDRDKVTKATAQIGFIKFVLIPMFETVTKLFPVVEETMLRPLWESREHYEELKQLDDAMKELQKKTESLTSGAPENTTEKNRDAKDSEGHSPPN
Particulars: concentrations below 200 micromolar; cited from earlier work.

Consider `Cc1ccn(-c2ccccc2Cc2nc3c(cnn3C3CCC(F)(F)CC3)c(=O)[nH]2)n1` [Example 106], for which, on human PDE9A2, the inhibition at 10 µM came to 83% and the pIC50 was 7.00 to 9.00.

Regarding `Nc1ccccc1Cc1nc2c(cnn2C2CCC(F)(F)CC2)c(=O)[nH]1` [Example 107], on human PDE9A2, the inhibition at 10 µM stood at 100% and the negative logarithm of the IC50 (pIC50) is 7.00 to 9.00.

In the case of `O=c1[nH]c(Cc2ccccc2-n2cnnc2)nc2c1cnn2C1CCC(F)(F)CC1` [Example 108], at human PDE9A2, the inhibition at 10 µM was found to be 99% and the negative-log IC50 (pIC50) was 7.00 to 9.00.

With `O=c1[nH]c(Cc2ccccn2)nc2c1cnn2C1CCC(F)CC1` (centres unmarked) [Example 109], at human PDE9A2, the inhibition at 10 µM was 93%.

With `Cc1cccnc1Cc1nc2c(cnn2C2CCC(F)CC2)c(=O)[nH]1` (centres unmarked) [Example 110], the inhibition at 10 µM on human PDE9A2 worked out at 95%.

As to `O=c1[nH]c(CC2CCC2)nc2c1cnn2C1CCC(F)CC1` (centres unmarked) [Example 111], at human PDE9A2, the inhibition at 10 µM turned out to be 74% and the negative-log IC50 (pIC50) was 7.00 to 9.00.

For the compound `CC(C)Cc1nc2c(cnn2C2CCC(F)CC2)c(=O)[nH]1` (centres unmarked) [Example 112], on human PDE9A2, the inhibition at 10 µM is 97% and the pIC50 is 7.00 to 9.00.

As for `O=c1[nH]c(CC2CCCC2)nc2c1cnn2C1CCC(F)CC1` (centres unmarked) [Example 113], at human PDE9A2, the inhibition at 10 µM is 98% and the pIC50 is 7.00 to 9.00.

As for `CC(C)Cn1c(=O)n(C)c(=O)c2[nH]cnc21` [IBMX], the “inhibition on the isolated enzyme” value on human PDE9A is on record as “no inhibition”. Further, the “inhibition of murine PDE9A” value at Murine PDE9A was “not inhibited”.

With `CC(=O)Nc1ccc(-c2c[nH]c(=O)cn2)cc1` [SKF94120], the “inhibition on the isolated enzyme” value at human PDE9A is reported as “no inhibition”.

Consider `OCCN(CCO)c1nc(N2CCCCC2)c2nc(N(CCO)CCO)nc(N3CCCCC3)c2n1` [dipyridamole], for which the “inhibition on the isolated enzyme” value on human PDE9A was “no inhibition”.

For `COc1ccc(C2CNC(=O)C2)cc1OC1CCCC1` (centres unmarked) [rolipram], the “inhibition on the isolated enzyme” value on human PDE9A is on record as “no inhibition”.

For the compound `CCOC(=O)C1=C[C@]2(CC)CCCN3CCc4c(n1c1ccccc41)[C@@H]32` [vinpocetine], at human PDE9A, the “inhibition on the isolated enzyme” value is given as “no inhibition”.
